# Patent publication US20260226034A1 (The Rockefeller University, priority 2023, published 2026)
# Target: NSP14 (Severe acute respiratory syndrome coronavirus 2, UniProt P0DTD1)
# Test: NSP14 MTase inhibition assay at 37° C. (MTase-Glo SAH detection)
# Type: biochemical, SARS-CoV-2
# Settings: 0.3 nM NSP14, 2.5 μM SAM, 2.5 μM GpppA RNA, 45 min at 37° C.; read-out: Nsp14 Mtase Inh. IC50
row,Structure (SMILES),IC50
1,Cc1c(S(=O)(=O)c2ccc3[nH]ncc3c2)cc(C(=O)N[C@@H]2CCN(c3nccc(C(F)F)n3)C2)n1C [A.122],0.3 nM
2,"Cc1c(S(=O)(=O)c2ccc3nn[nH]c3c2)cc(C(=O)NCc2c(F)ccc3occc23)n1C [A.31, 4-((1H-benzo[d][1,2,3]triazol-6-yl)sulfonyl)-N-((5-fluorobenzofuran-4-yl)methyl)-1,5-dimethyl-1H-pyrrole-2-carboxamide]",315 nM
3,Cc1c(S(=O)(=O)c2ccc3[nH]ncc3c2)cc(C(=O)N[C@@H]2CCN(c3cc(F)cc(F)c3)C2)n1C [A.96],0.85 nM
4,Cc1c(S(=O)(=O)c2ccc3[nH]ncc3c2)cc(C(=O)N[C@H]2CCN(c3ncc(F)cn3)C2)n1C [A.47],2.2 nM
5,Cc1c(S(=O)(=O)c2ccc3[nH]ncc3c2)cc(C(=O)NCc2cccc3cnn(C4CC4)c23)n1C [A.5],1.5 nM
6,Cc1c(S(=O)(=O)c2ccc(Cl)cc2)cc(C(=O)NCc2cccc3cnn(C)c23)n1C [A.11],5.3 nM
7,Cc1c(S(=O)(=O)c2ccc(=O)n(C)c2)cc(C(=O)NCc2cccc3cnn(C)c23)n1C [A.15],13.4 nM
8,Cc1c(S(=O)(=O)c2ccc3[nH]ncc3c2)cc(C(=O)NCc2cccn3nccc23)n1C [A.13],7.2 nM
9,Cc1c(S(=O)(=O)c2ccc3[nH]ncc3c2)cc(C(=O)N[C@@H]2CCN(c3ccc(C#N)c(C#N)c3)C2)n1C [A.108],< 0.15 nM
10,Cc1c(S(=O)(=O)c2ccc3[nH]ncc3c2)cc(C(=O)N[C@@H]2CCN(c3ncccn3)C2)n1C [A.64],0.78 nM
11,Cc1c(S(=O)(=O)c2ccc3[nH]ncc3c2)cc(C(=O)N[C@@H]2CCN(c3ccnc(C(F)(F)F)n3)C2)n1C [A.92],< 0.15 nM
12,Cc1c(S(=O)(=O)c2ccc3[nH]ncc3c2)cc(C(=O)NC2CN(c3ncc(F)cn3)C2)n1C [A.36],2.2 nM
13,Cc1c(S(=O)(=O)c2ccc3[nH]ncc3c2)cc(C(=O)NC2CCCN(c3ncc(F)cn3)C2)n1C (centres unmarked) [A.77],7.9 nM
14,Cc1c(S(=O)(=O)c2ccc3[nH]ncc3c2)cc(C(=O)N[C@H]2CN(c3ccc(C#N)cn3)CC23CC3)n1C [A.110],0.7 nM
15,Cc1c(S(=O)(=O)c2ccc3[nH]ncc3c2)cc(C(=O)N[C@H]2C[C@@H](Nc3ncc(F)cn3)C2)n1C [A.97],13 nM
16,Cc1c(S(=O)(=O)c2ccc3[nH]ncc3c2)cc(C(=O)N[C@@H]2CCN(c3cccc4c3cnn4C)C2)n1C [A.61],0.39 nM
17,Cc1c(S(=O)(=O)c2ccc3[nH]ncc3c2)cc(C(=O)N[C@H]2CN(c3ncc(F)cn3)C[C@H]2O)n1C [A.89],14 nM
18,COc1ccccc1CNC(=O)c1cc(S(=O)(=O)c2ccc3c(cnn3C)c2)c(C)n1C [A.23],68 nM
19,Cc1c(S(=O)(=O)c2ccc3[nH]ncc3c2)cc(C(=O)N[C@@H]2CCN(c3cccn4nccc34)C2)n1C [A.59],0.18 nM
20,Cc1c(S(=O)(=O)c2cccc(Cl)c2)cc(C(=O)NCc2cccc3cnn(C)c23)n1C [A.9],2.1 nM
21,Cc1c(S(=O)(=O)c2ccc3occc3c2)cc(C(=O)NCc2cccc3cnn(C)c23)n1C [A.8],1.8 nM
22,Cc1c(S(=O)(=O)c2ccc3[nH]ncc3c2)cc(C(=O)N[C@@H]2CCN(c3ccnc(C(F)F)c3)C2)n1C [A.107],0.17 nM
23,Cc1c(S(=O)(=O)c2ccc3[nH]ncc3c2)cc(C(=O)N[C@@H]2CCN(c3ncc(Cl)cn3)C2)n1C [A.42],0.42 nM

# Same assay, conditions: 37° C., 0.3 nM NSP14, 2.5 μM SAM, 2.5 μM GpppA RNA; read-out: Nsp14 Mtase Inh. IC50
row,Structure (SMILES),IC50
1,O=C(NCc1c(F)ccc2ncn(C3CC3)c12)c1cc(S(=O)(=O)c2ccc3[nH]nc(F)c3c2)c2n1CCC2 [B.91],0.28 nM
2,Cc1c(S(=O)(=O)c2ccc3[nH]ncc3c2)cc(C(=O)NCc2c(Cl)cnn2C)n1CC(F)F [B.186],1.1 nM
3,"Cc1c(S(=O)(=O)c2cc(F)c3[nH]ncc3c2)cc(C(=O)N[C@@H](C)c2cccc3cnn(C4CC4)c23)n1C (single isomer, unassigned) [B.87]",0.82 nM
4,Cc1c(S(=O)(=O)c2ccc3[nH]ncc3c2)cc(C(=O)NCc2c(F)ccc(=O)n2C)n1C [B.179],< 0.15 nM
5,Cc1c(S(=O)(=O)c2ccc3c(c2)CNC3)cc(C(=O)NCc2cccc3cnn(C)c23)n1C [B.10],113 nM
6,"Cc1c(S(=O)(=O)c2ccc3[nH]ncc3c2)cc(C(=O)N[C@H]2CCc3c(F)ccc(F)c32)n1C (single isomer, unassigned) [B.140]",0.31 nM
7,Cc1cc(S(=O)(=O)c2cc(C(=O)NCc3c(F)ccnc3N3CCC(C)(C(=O)O)C3)n(C)c2C)cc2cnn(C)c12 (racemic) [B.127],0.58 nM
8,Cc1c(S(=O)(=O)c2ccc3[nH]ncc3c2)cc(C(=O)NCc2c(F)ccc(OCc3ccc(C(=O)O)cc3)c2F)n1C [B.123],< 0.15 nM
9,Cc1c(S(=O)(=O)c2ccc3[nH]ncc3c2)cc(C(=O)NC2CCc3cccc(F)c32)n1C (racemic) [B.110],0.38 nM
10,Cc1c(S(=O)(=O)c2ccc3[nH]ncc3c2)cc(C(=O)NCc2cccc3c(F)nn(C4CC4)c23)n1C [B.35],3.3 nM
11,Cc1c(S(=O)(=O)c2ccc3[nH]ncc3c2)cc(C(=O)NCc2c(F)cccc2OCCS(C)(=O)=O)n1C [B.108],< 0.15 nM
12,COCCn1c(C(=O)NCc2c(Cl)cnn2C)cc(S(=O)(=O)c2cc(Cl)c3[nH]ncc3c2)c1C [B.194],1.1 nM
13,"CN=S(=O)(NC(=O)c1cc(S(=O)(=O)c2ccc3[nH]ncc3c2)c(C)n1C)c1ccccc1 (racemic) [B.135, 4-(1H-indazol-5-ylsulfonyl)-1,5-dimethyl-N—(N-methyl-S-phenyl-sulfonimidoyl)pyrrole-2-carboxamide]",19 nM
14,Cc1c(S(=O)(=O)c2ccc3[nH]ncc3c2)cc(C(=O)NCc2cccc3c2N(C)C(=O)CC3)n1C [B.15],14 nM
15,"Cc1c(S(=O)(=O)c2ccc3[nH]ncc3c2)cc(C(=O)N[C@H](C)c2c(F)cccc2F)n1C (single isomer, unassigned) [B.65]",65 nM
16,Cc1c(S(=O)(=O)c2ccc3[nH]ncc3c2)cc(C(=O)NCCN(C)c2ncc(F)cn2)n1C [B.198],16 nM
17,Cc1c(S(=O)(=O)c2ccc3[nH]ncc3c2)cc(C(=O)NCc2c(F)ccc3cnn(C4CC4)c23)n1C [B.16],0.38 nM
18,Cn1ncc(Cl)c1CNC(=O)c1cc(S(=O)(=O)c2cccc(C#N)c2)c2n1CCC2 [B.192],98 nM
19,Cc1c(S(=O)(=O)c2ccc(C3CC3)cc2)cc(C(=O)NCc2cccc3cnn(C)c23)n1C [B.7],114 nM
20,Cc1c(S(=O)(=O)c2ccc3[nH]ncc3c2)cc(C(=O)NCc2cccc3c2CCC(=O)N3C)n1C [B.25],< 0.15 nM
21,Cc1c(S(=O)(=O)c2ccc3[nH]ncc3c2)cc(C(=O)NC2CCc3cc(C(F)(F)F)ccc32)n1C (racemic) [B.71],36 nM
22,"Cc1c(S(=O)(=O)c2ccc3[nH]ncc3c2)cc(C(=O)N[C@H](C)c2c(F)cccc2F)n1C (single isomer, unassigned) [B.64]",4 nM
23,Cc1c(S(=O)(=O)c2ccc3[nH]ncc3c2)cc(C(=O)NCc2c(F)cccc2F)n1C [B.22],0.23 nM

row,Structure (SMILES),IC50
1,Cc1c(S(=O)(=O)c2ccc3[nH]ncc3c2)cc(C(=O)NCc2ccnn2C2CC2)n1C [B.167],7.8 nM
2,Cc1c(S(=O)(=O)c2ccc3[nH]ncc3c2)cc(C(=O)NCc2nccc3cnn(C4CC4)c23)n1C [B.118],0.48 nM
3,Cc1c(S(=O)(=O)c2cc(F)c3ncccc3c2)cc(C(=O)NCc2cccc3cnn(C)c23)n1C [B.17],41.8 nM
4,Cc1c(S(=O)(=O)c2ccc3[nH]nc(F)c3c2)cc(C(=O)NCc2c[nH]c(=O)c3ccccc23)n1C [B.95],2.2 nM
5,Cc1c(S(=O)(=O)c2cc(F)c3[nH]ncc3c2)cc(C(=O)NCc2ccnn2C)n1C [B.137],10 nM
6,Cc1c(S(=O)(=O)c2ccc3[nH]ncc3c2)cc(C(=O)NCc2n[nH]c(=O)c3ccccc23)n1C [B.121],< 0.15 nM
7,Cc1c(S(=O)(=O)c2ccc3[nH]ncc3c2)cc(C(=O)NCc2ccc(=O)n(C)n2)n1C [B.133],7.6 nM
8,Cc1c(S(=O)(=O)c2ccc3[nH]ncc3c2)cc(C(=O)NCc2ccccc2F)n1C [B.76],1.6 nM
9,Cc1c(S(=O)(=O)c2cc(C(F)(F)F)c3[nH]ncc3c2)cc(C(=O)NCc2c(F)ccc3nnn(C4CC4)c23)n1C [B.144],1 nM
10,COc1nccc(F)c1CNC(=O)c1cc(S(=O)(=O)c2ccc3[nH]ncc3c2)c(C)n1C [B.112],< 0.15 nM
11,Cc1c(S(=O)(=O)c2ccc3[nH]ncc3c2)cc(C(=O)NCc2ccn(C(F)F)n2)n1C [B.160],149 nM
12,Cc1c(S(=O)(=O)c2ccc3[nH]ncc3c2)cc(C(=O)NCc2c(F)cc(CN(C)C)cc2F)n1C [B.68],4.1 nM
13,Cc1c(S(=O)(=O)c2ccc3[nH]ncc3c2)cc(C(=O)NCc2ccccc2C#N)n1C [B.101],192 nM
14,Cc1c(S(=O)(=O)c2ccc3[nH]ncc3c2)cc(C(=O)NCc2c(F)ccc3c2N(C)C(=O)C3(C)C)n1C [B.119],0.21 nM
15,Cc1c(S(=O)(=O)c2ccc3[nH]ncc3c2)cc(C(=O)NCc2cccc3nnn(C4CC4)c23)n1C [B.66],< 0.15 nM
16,Cc1c(S(=O)(=O)c2ccc3[nH]ncc3c2)cc(C(=O)NCc2nccc3cnn(C)c23)n1C [B.24],0.62 nM
17,Cc1c(S(=O)(=O)c2ccc3[nH]ncc3c2)cc(C(=O)NCc2ccc(N(C)C)nn2)n1C [B.73],116 nM
18,Cc1c(S(=O)(=O)c2cc(Cl)c3[nH]ncc3c2)cc(C(=O)NCc2ccnn2C)n1C [B.134],0.18 nM
19,Cc1c(S(=O)(=O)c2ccc3[nH]ncc3c2)cc(C(=O)NCc2cccc3c(F)n[nH]c23)n1C [B.31],5.4 nM
20,Cc1c(S(=O)(=O)c2ccc3[nH]ncc3c2)cc(C(=O)NC2CCc3ncccc32)n1C (centres unmarked) [B.55],5.6 nM
21,Cc1c(S(=O)(=O)c2ccc3[nH]ncc3c2)cc(C(=O)NCc2cccc3c2N(C)C(=O)C3(F)F)n1C [B.26],0.49 nM
22,Cc1c(S(=O)(=O)c2ccc3[nH]ncc3c2)cc(C(=O)NCc2c[nH]c(=O)c3cnn(C)c23)n1C [B.115],0.17 nM
